Legend:
[1] = Inhibition of quorum sensing system in Escherichia coli O157:H7
[2] = system: Escherichia coli; test: Inhibition of quorum sensing system in Escherichia coli MT102 at 250 uM measured after 15 hrs by fluorescence method relative to control
[3] = system: Pseudomonas aeruginosa; test: Inhibition of quorum sensing system in Pseudomonas aeruginosa assessed as reduction in biofilm formation at 250 uM incubated for 24 hrs by crystal violet staining based method relative to control
[4] = Antagonist activity at Vibrio fischeri quorum sensing system in presence of OHHL by bioluminescence method; parameters: species or system Aliivibrio fischeri
[5] = Inhibition of quorum sensing system in Pseudomonas aeruginosa PAO1 assessed as reduction in […] incubated for 18 hrs by congo red staining based assay
[6] = Inhibition of quorum sensing system in Pseudomonas aeruginosa PAO1 assessed as reduction in pyocyanin production incubated for 8 hrs
[7] = Inhibition of LuxR in Escherichia coli Top10 assessed as reduction in GFP production using 3OC6HSL as substrate by fluorescence method
[8] = system: Pseudomonas aeruginosa; test: Antagonist activity at Pseudomonas aeruginosa PAO-JP2 LasR assessed as reduction in GFP production incubated for 6 hrs in presence of OdDHL by fluorescence method relative to control; parameters: scale not given: the % may be the effect or the level left; details: filed as antagonist
[9] = Antagonist activity at Pseudomonas aeruginosa PAO-JP2 LasR assessed as reduction in GFP production incubated for 6 hrs in presence of OdDHL by fluorescence method
[10] = biological target: T1, Transcriptional activator protein LuxR (Aliivibrio fischeri, UniProt P12746); test: Antagonist activity at Vibrio fischeri luxR expressed in Escherichia coli NM522 in presence of 3-oxo-C6-HSL
T1 sequence (P12746 whole entry): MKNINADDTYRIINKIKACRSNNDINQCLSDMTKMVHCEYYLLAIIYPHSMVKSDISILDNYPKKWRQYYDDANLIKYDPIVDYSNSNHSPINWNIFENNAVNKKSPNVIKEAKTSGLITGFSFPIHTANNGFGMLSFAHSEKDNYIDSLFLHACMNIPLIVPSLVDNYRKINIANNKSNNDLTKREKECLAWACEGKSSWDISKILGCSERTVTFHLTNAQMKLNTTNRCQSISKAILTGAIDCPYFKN

[11] = system: Escherichia coli; test: Inhibition of quorum sensing system in Escherichia coli assessed as reduction in biofilm formation at 250 uM incubated for 24 hrs by crystal violet staining based method relative to control
[12] = system: Pseudomonas aeruginosa; test: Inhibition of quorum sensing system in Pseudomonas aeruginosa MH602 harboring lasB promoter measured at 250 uM every 30 mins over 22 hrs by fluorescence method relative to control; details: time hrs >22
[13] = Inhibition of quorum sensing system in Staphylococcus aureus
[14] = system: Vibrio campbellii ATCC BAA-1116; test: Inhibition of quorum sensing system in Vibrio harveyi BB120 assessed as delay time for the onset of bioluminescence at 50 ug/ml measured every 10 mins after 5 min of double orbital stirring during 11 hrs 50 mins by luminescence method; details: dose 50.0 µg/ml, time 710.0 min
[15] = Inhibition of quorum sensing system in Pseudomonas aeruginosa PAO1
[16] = Inhibition of quorum sensing system in Burkholderia cepacia
[17] = Inhibition of quorum sensing system in Chromobacterium violaceum CV026 assessed as reduction in violacein production incubated for 16 to 18 hrs by spot test method
[18] = Inhibition of quorum sensing system in Proteus mirabilis
[19] = Inhibition of quorum sensing system in Pseudomonas aeruginosa
[20] = Inhibition of quorum sensing system in Stenotrophomonas maltophilia

SMILES: O=c1c(O)c(-c2ccc(O)c(O)c2)oc2cc(O)cc(O)c12 [QUERCETIN]
- IC50 [1]: 20 µM

SMILES: C#CCNC(=O)C(=O)c1ccccc1NC(=O)CCl
- inhibition [2]: 71.5%
- inhibition [3]: 66.9%

SMILES: O=C(N[C@H]1CCOC1=O)OCc1ccc([N+](=O)[O-])cc1
- IC50 [4]: 22 µM

SMILES: O=C1C[C@@H](c2ccc(O)c(O)c2)Oc2cc(O)cc(O)c21 [ERIODICTYOL]
- IC50 [5]: 4000 µM
- IC50 [6]: 4000 µM

SMILES: CCOC(=O)/C=C1\CC(NCc2ccc(C)cc2)C(=O)N1Cc1ccc(C)cc1 (stereo unspecified)
- IC50 [7]: 50 µM

SMILES: CCCCCCCCCNC(=O)CC(=O)c1ccco1
- Activity [8]: 96%
- IC50 [9]: 1.2 µM

SMILES: Nc1ccccc1[N+](=O)[O-] [2-NITROANILINE]
- IC50 [10]: 85 µM

SMILES: C#CCNC(=O)C(=O)c1cc(Cl)ccc1NC(=O)CCl
- inhibition [2]: 72.1%
- inhibition [11]: 90.8%
- inhibition [12]: 71.5%

SMILES: Cc1ccc2c(c1)C(=O)C(=O)N2C(=O)CCl
- inhibition [3]: 71.2%

SMILES: CC1=CC(=O)C(C(C)C)=CC1=O [THYMOQUINONE]
- IC50 [13]: 130 µM

SMILES: O=C(OC[C@H]1O[C@@H](OC(=O)c2cc(O)c(O)c(OC(=O)c3cc(O)c(O)c(O)c3)c2)[C@H](OC(=O)c2cc(O)c(O)c(OC(=O)c3cc(O)c(O)c(O)c3)c2)[C@@H](OC(=O)c2cc(O)c(O)c(OC(=O)c3cc(O)c(O)c(O)c3)c2)[C@@H]1OC(=O)c1cc(O)c(O)c(OC(=O)c2cc(O)c(O)c(O)c2)c1)c1cc(O)c(O)c(OC(=O)c2cc(O)c(O)c(O)c2)c1 [TANNIC ACID]
- IC50 [13]: 20 µM

SMILES: O=C1C(=O)N(C(=O)CCl)c2ccccc21
- inhibition [11]: 87.9%

SMILES: C#CCNC(=O)C(=O)c1cc(F)ccc1NC(=O)CCl
- inhibition [2]: 73.5%
- inhibition [11]: 89.5%
- inhibition [12]: 71.5%

SMILES: O=C1C[C@@H](c2ccc(O)cc2)Oc2cc(O)cc(O)c21 [NARINGENIN]
- IC50 [5]: 4000 µM
- IC50 [6]: 4000 µM

SMILES: O=C1Cn2nncc2CNC(=O)C(=O)c2ccccc2NC(=O)Cn2nncc2CNC(=O)C(=O)c2ccccc2N1
- inhibition [12]: 73.5%

SMILES: O=c1c(O)c(-c2ccc(O)cc2)oc2cc(O)cc(O)c12 [KAEMPFEROL]
- IC50 [13]: 220 µM

SMILES: C=C1CCC[C@H]2[C@](C)(Cc3c(O)c(OC(C)=O)cc(OC)c3OC(C)=O)[C@@H](C)CC[C@]12C
- TIME [14]: 1 h

SMILES: C=C1CCC[C@H]2[C@](C)(CC3=C(O)C(=O)C=C(O)C3=O)[C@@H](C)CC[C@]12C
- TIME [14]: 2.5 h

SMILES: Oc1cc(O)c2c(c1)O[C@H](c1ccc(O)c(O)c1)[C@@H](O)C2 [CIANIDANOL]
- IC50 [15]: 4000 µM

SMILES: O=c1oc2c(O)c(O)cc3c(=O)oc4c(O)c(O)cc1c4c23 [ELLAGIC ACID]
- IC50 [16]: 132 µM

SMILES: O=C1c2c(O)cc(O)cc2O[C@H](c2ccc(O)c(O)c2)[C@H]1O [(+)-TAXIFOLIN]
- IC50 [5]: 4000 µM
- IC50 [6]: 4000 µM

SMILES: O=C(Nc1ccc(S(=O)(=O)N[C@H]2CCOC2=O)cc1)c1sccc1Cl
- IC50 [17]: 6.19 µM

SMILES: COc1cc(/C=C/C(=O)CC(=O)/C=C/c2ccc(O)c(OC)c2)ccc1O [CURCUMIN]
- IC50 [15]: 3 µM

SMILES: O=C(N[C@H]1CCOC1=O)SCc1ccc([N+](=O)[O-])cc1
- IC50 [4]: 23 µM

SMILES: Oc1ccc(/C=C/c2cc(O)cc(O)c2)cc1 [RESVERATROL]
- IC50 [18]: 65 µM

SMILES: COC1=CC(=O)C(O)=C(C[C@]2(C)[C@@H](C)CC[C@]3(C)OC(=O)CCC[C@@H]23)C1=O
- TIME [14]: 0.667 h

SMILES: O=C(O)/C=C/c1ccccc1 [CINNAMIC ACID]
- IC50 [19]: 1680 µM

SMILES: O=C(/C=C/c1ccc(O)c(O)c1)O[C@@H]1C[C@](O)(C(=O)O)C[C@@H](O)[C@H]1O [CHLOROGENIC ACID]
- IC50 [20]: 22 µM

SMILES: C#CCNC(=O)C(=O)c1cc(Br)ccc1NC(=O)CCl
- inhibition [3]: 66.5%

SMILES: O=C/C=C/c1ccccc1 [CINNAMALDEHYDE]
- IC50 [15]: 5900 µM

SMILES: C[C@H]1CC[C@]2(C)C(=O)CCC[C@H]2[C@]1(C)CC1=C(O)C(=O)CC1=O
- TIME [14]: 0.667 h

SMILES: O=C(O)c1ccccc1O [SALICYLIC ACID]
- IC50 [19]: 1440 µM

Reference: ChEMBL document CHEMBL4699578, “Next generation quorum sensing inhibitors: Accounts on structure activity relationship studies and biological activities” (Bioorg Med Chem, 2020)
